Test results taken from patent publication US20260125374A1, “PI3K-ALPHA INHIBITORS AND METHODS OF MAKING AND USING THE SAME” (Relay Therapeutics, Inc., priority 2021, published 2026).

What was measured:
Format in all cases: physicochemical
[1] = Salt screening (XRPD, chiral purity of hits)
Protocol: Based on the pKa of I-1 free form, 23 counter ions were selected as salt/cocrystal forming agents. Methanol, acetone and isopropyl acetate were used as screening solvents. 1.0 equivalent of selected counter ions/coformers was applied for salt screening. Slurry equilibration, slow evaporation and anti-solvent addition were used as crystallization methods. In total, about 70 screening experiments were conducted.
About 50 mg of I-1 Form A were added to a suitable amount of solvent and 1.0 equivalent of counter ions were added under stirring at 50° C. for 2 hours and then at 25° C. for at least 12 hours. MeOH, acetone and IPAc were used as screening solvents.
Obtained suspensions were taken out and centrifuged. Solids obtained were analyzed by XRPD and salt screening results were summarized in Table 5.1, Table 5.2, and Table 5.3.

[2] = Bulk stability (1 week); conditions: listed as I-4 Form A; for Bulk (HPLC) chiral purity / Bulk (HPLC) purity / Bulk (XRPD): Solid state
Protocol: Bulk stability of I-1 Form A and the 2 salt candidates was investigated at 25° C./92% RH in an open container, at 40° C./75% RH in an open container and at 60° C. in a tight container over 1 week. […] All the 3 salts show no obvious racemization based on chiral purity results.
I-1 Form A and the 2 salts were placed at 25° C./92% RH in an open container, at 40° C./75% RH in an open container and at 60° C. in a closed container for I week. Samples after I week were characterized by XRPD and HPLC and inspected for color change.

[3] = Hygroscopicity by DVS
Protocol: • Method 1 (for I-1 Form A and I-3 Form A) • Instrument Intrinsic, Advantage or Adventure • Total gas flow 200 sccm • Oven temperature 25° C. • Solvent Water • Method Cycle: 40-0-95-0-40% RH • Stage Step: 10% • Equilibrium: 0.002 dm/dt (%/min) • Minimum dm/dt stability duration: 60 min • Maximum dm/dt stage time: 360 min • Method 2 (for I-4 Form A) • Instrument Intrinsic, Advantage or Adventure • Total gas flow 200 sccm • Oven temperature 25° C. • Solvent Water • Method Cycle: 40-95-0-95-40% RH • Stage Step: 10% • Equilibrium: 0.002 dm/dt (%/min) • Minimum dm/dt stability duration: 60 min • Maximum dm/dt stage time: 360 min
I-1 Form A is hygroscopic. It absorbs about 5.5% water by weight from 40% RH to 95% RH. […] It absorbs about 40% water by weight from 40% RH to 95% RH. Form changed after the DVS test. […] It starts to absorb water when RH>40% and potential hydrate form generates at high humidity based on DVS data. The sorption and desorption are reversible.
Water sorption and desorption behavior of I-1 Form A, I-3 Form A, and I-4 Form A was investigated by DVS at 25° C. with a cycle of 40-0-95-0-40% RH, dm/dt 0.002, min. equilibration time 60 min and max. equilibration time 360 min. XRPD was measured after the DVS test to determine form change.

[4] = crystalline hits of salt screening, listed as I-4 Form A
[5] = 25° C./92% RH, open container, 1 week
[6] = 40° C./75% RH, open container, 1 week
[7] = 60° C., tight container, 1 week
[8] = DVS 25° C., 0% RH, listed as I-4 Form A
[9] = DVS 25° C., 10% RH, listed as I-4 Form A
[10] = DVS 25° C., 20% RH, listed as I-4 Form A
[11] = DVS 25° C., 30% RH, listed as I-4 Form A
[12] = DVS 25° C., 40% RH, listed as I-4 Form A
[13] = DVS 25° C., 50% RH, listed as I-4 Form A
[14] = DVS 25° C., 60% RH, listed as I-4 Form A
[15] = DVS 25° C., 70% RH, listed as I-4 Form A
[16] = DVS 25° C., 80% RH, listed as I-4 Form A
[17] = DVS 25° C., 90% RH, listed as I-4 Form A
[18] = DVS 25° C., 95% RH, listed as I-4 Form A

N#Cc1c(-c2cc(NC(=O)c3cc(F)cc(C(F)(F)F)c3)c3c(c2)C(=O)N[C@H]3c2cc(F)ccc2Cl)ccc2ncnn12 [Compound I-4]
Salt screening result (anti-solvent) ([1]; 1.0 equiv. methanesulfonic acid, Acetone/MTBE): + (I-4 Form A) (Salt hits)
Chiral purity of salt screening solid ([1]; anti-solvent, 1.0 equiv. methanesulfonic acid, Acetone/MTBE): Chiral purity: 98.3%
Chiral purity (by HPLC) [1, 4]: 98.3%
Crystallinity (By XRPD) [1, 4]: Low
bulk stability (chemical and physical) ([2]; 25° C./92% RH open, 40° C./75% RH open, 60° C. tight container, 1 week): chemically stable but physically unstable at 25° C./92% RH and 40° C./75% RH
Bulk (HPLC) chiral purity [2, 5]: 98.3%
Bulk (HPLC) purity [2, 5]: 99.4%/
Bulk (XRPD) [2, 5]: Form changed
Bulk (HPLC) chiral purity [2, 6]: 99.1%
Bulk (HPLC) purity [2, 6]: 99.0%/
Bulk (XRPD) [2, 6]: Form changed
Bulk (HPLC) chiral purity [2, 7]: 99.2%
Bulk (HPLC) purity [2, 7]: 99.5%/
Chiral purity (initial) ([2]; before storage): 99.5%
Initial purity by HPLC ([2]; before storage): 99.6%
1st Desorp. (%) [3, 8]: 0.01%
2nd Sorp. (%) [3, 8]: 0.01%
1st Desorp. (%) [3, 9]: 1.52%
2nd Sorp. (%) [3, 9]: 0.98%
1st Desorp. (%) [3, 10]: 2.78%
2nd Sorp. (%) [3, 10]: 1.76%
1st Desorp. (%) [3, 11]: 3.61%
2nd Sorp. (%) [3, 11]: 2.64%
1st Desorp. (%) [3, 12]: 4.52%
1st Sorp. (%) [3, 12]: 1.62%
2nd Desorp. (%) [3, 12]: 4.51%
2nd Sorp. (%) [3, 12]: 3.57%
1st Desorp. (%) ([3]; DVS 25° C., 50% RH): 5.78%
2nd Sorp. (%) ([3]; DVS 25° C., 50% RH): 4.63%
1st Sorp. (%) [3, 13]: 3.50%
2nd Desorp. (%) [3, 13]: 5.71%
1st Desorp. (%) ([3]; DVS 25° C., 60% RH): 7.60%
2nd Sorp. (%) ([3]; DVS 25° C., 60% RH): 6.22%
1st Sorp. (%) [3, 14]: 4.75%
2nd Desorp. (%) [3, 14]: 7.44%
1st Desorp. (%) ([3]; DVS 25° C., 70% RH): 11.14%
2nd Sorp. (%) ([3]; DVS 25° C., 70% RH): 9.34%
1st Sorp. (%) [3, 15]: 6.87%
2nd Desorp. (%) [3, 15]: 10.54%
1st Desorp. (%) ([3]; DVS 25° C., 80% RH): 16.84%
2nd Sorp. (%) ([3]; DVS 25° C., 80% RH): 15.03%
1st Sorp. (%) [3, 16]: 12.16%
2nd Desorp. (%) [3, 16]: 17.11%
1st Desorp. (%) ([3]; DVS 25° C., 90% RH): 31.04%
2nd Sorp. (%) ([3]; DVS 25° C., 90% RH): 27.39%
1st Sorp. (%) [3, 17]: 25.12%
2nd Desorp. (%) [3, 17]: 32.94%
1st Desorp. (%) ([3]; DVS 25° C., 95% RH): 42.35%
2nd Sorp. (%) ([3]; DVS 25° C., 95% RH): 44.74%
1st Sorp. (%) [3, 18]: 42.35%
2nd Desorp. (%) [3, 18]: 44.74%
XRPD after DVS test ([3]; DVS 25° C., cycle 40-0-95-0-40% RH, listed as I-4 Form A): Form changed
hygroscopicity ([3]; DVS at 25° C., listed as I-4 Form A): very hygroscopic
water absorbed ([3]; from 40% RH to 95% RH, 25° C., listed as I-4 Form A): about 40 % water by weight
form after the DVS test (XRPD) ([3]; listed as I-4 Form A): Form changed
